Experimental data published in PMC7605328 (ACS Medicinal Chemistry Letters, 2020).

Tests used:
COVID-19 = conditions: cited from earlier work
SARS-CoV-2 M^pro = SARS-CoV-2 M^pro (Severe acute respiratory syndrome coronavirus 2, UniProt P0DTD1); test: FRET-based kinetic assay of M^pro inhibition; format: biochemical

SMILES: CCC(CC)COC(=O)[C@H](C)N[P@](=O)(OC[C@H]1O[C@@](C#N)(c2ccc3c(N)ncnn23)[C@H](O)[C@@H]1O)Oc1ccccc1 [remdesivir]
- clinical benefit (COVID-19; adult patients hospitalized for severe COVID-19): no statistically significant clinical benefits
- time to clinical improvement (COVID-19; in comparison to the placebo-control group): faster time to clinical improvement

SMILES: Cc1cccc(C)c1OCC(=O)N[C@@H](Cc1ccccc1)[C@@H](O)C[C@H](Cc1ccccc1)NC(=O)[C@H](C(C)C)N1CCCNC1=O [lopinavir]
- benefits against COVID-19 in clinical trials (COVID-19; clinical trials, no reference given): neither lopinavir nor the lopinavir/ritonavir combination has thus far shown any significant benefits

SMILES: Cc1c(O)cccc1C(=O)N[C@@H](CSc1ccccc1)[C@H](O)CN1C[C@H]2CCCC[C@H]2C[C@H]1C(=O)NC(C)(C)C [nelfinavir]
- IC50 (SARS-CoV-2 M^pro): 250 to 600 µM
